Data published in PubChem BioAssay AID328 (DTP/NCI, 2004).
Values joined by “and” are separate entries in the source; they are usually repeats but may differ in a detail not shown here. Identical values can stand only once. Toxic doses and inconclusive results are not listed.

System: BDF1 mice, P388 leukemia ip, median survival T/C
Assay: NCI In Vivo Anticancer Drug Screen. Data for tumor model P388 Leukemia (intraperitoneal) in B6D2F1 (BDF1) mice
Conditions: endpoint: median survival time, higher = longer survival
How it was run: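 Reported as T/C, where T is the survival measurement in dosed animals and C the same measurement in vehicle controls.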

[1] = dose: 100.0 mg/kg/injection, schedule: Q01DX001 (ip), vehicle: saline sonified
[2] = dose: 200.0 mg/kg/injection, schedule: Q01DX001 (ip), vehicle: saline sonified
[3] = dose: 400.0 mg/kg/injection, schedule: Q01DX001 (ip), vehicle: saline sonified
[4] = dose: 25.0 mg/kg/injection, schedule: Q01DX009 (ip), vehicle: saline with Tween-80
[5] = dose: 50.0 mg/kg/injection, schedule: Q01DX009 (ip), vehicle: saline with Tween-80
[6] = dose: 100.0 mg/kg/injection, schedule: Q01DX009 (ip), vehicle: saline with Tween-80
[7] = dose: 100.0 mg/kg/injection, schedule: Q04DX003 (ip), vehicle: saline sonified
[8] = dose: 200.0 mg/kg/injection, schedule: Q01DX009 (ip), vehicle: saline with Tween-80
[9] = dose: 200.0 mg/kg/injection, schedule: Q04DX003 (ip), vehicle: saline sonified
[10] = dose: 400.0 mg/kg/injection, schedule: Q04DX003 (ip), vehicle: saline sonified
[11] = dose: 100.0 mg/kg/injection, schedule: Q04DX003 (ip), vehicle: saline with Tween-80
[12] = dose: 200.0 mg/kg/injection, schedule: Q04DX003 (ip), vehicle: saline with Tween-80
[13] = dose: 400.0 mg/kg/injection, schedule: Q04DX003 (ip), vehicle: saline with Tween-80
[14] = dose: 100.0 mg/kg/injection, schedule: Q04DX003 (ip), vehicle: Klucel (hydroxypropylcellulose) (HPC)
[15] = dose: 200.0 mg/kg/injection, schedule: Q04DX003 (ip), vehicle: Klucel (hydroxypropylcellulose) (HPC)
[16] = dose: 400.0 mg/kg/injection, schedule: Q01DX009 (ip), vehicle: saline with Tween-80
[17] = dose: 100.0 mg/kg/injection, schedule: Q01DX009 (ip), vehicle: Klucel (hydroxypropylcellulose) (HPC)

With Nc1nc(CNc2ccc(Cl)cc2)nc(Nc2cccc(Cl)c2)n1 the T/C [1] was 100 % of control, the T/C [2] was 105 % of control and the T/C [3] was 100 % of control.

With O=[N+]([O-])c1ccc(/C=N\Nc2ccc([N+](=O)[O-])cn2)cc1 the T/C (dose: 12.5 mg/kg/injection, schedule: Q01DX009 (ip), vehicle: saline with Tween-80) was 110 % of control, the T/C [4] was 120 % of control and the T/C [5] was 120 % of control. The T/C [6] was 90 % of control, the T/C [7] was 100 % of control and the T/C [8] was 90 % of control. For the same compound, the T/C [9] was 110 % of control and the T/C [10] was 120 % of control.

C=CC(CN1CC1)OC(C)=O (stereo not drawn) was tested, and the T/C (dose: 2.0 mg/kg/injection, schedule: Q01DX010 (ip), vehicle: saline) was 112 % of control, the T/C (dose: 4.0 mg/kg/injection, schedule: Q01DX010 (ip), vehicle: saline) was 163 % of control and the T/C (dose: 8.0 mg/kg/injection, schedule: Q01DX010 (ip), vehicle: saline) was 181 % of control. For the same compound, the T/C (dose: 16.0 mg/kg/injection, schedule: Q01DX010 (ip), vehicle: saline) was 166 % of control.

For c1ccc(OCC2CO2)cc1 (stereo not drawn), the T/C [6] was 108 % of control and 118 % of control, the T/C [11] was 110 % of control and the T/C [8] was 108 % of control and 112 % of control. The T/C [12] was 115 % of control and the T/C [13] was 110 % of control.

In the case of CC[n+]1ccc(Nc2ccc(/C=C/c3ccc4cc(Nc5cc[n+](CC)cc5)ccc4[n+]3CC)cc2)cc1, the T/C (dose: 2.5 mg/kg/injection, schedule: Q01DX009 (ip), vehicle: saline) is reported as 158 % of control and 161 % of control, the T/C (dose: 3.13 mg/kg/injection, schedule: Q01DX009 (oral), vehicle: saline) is reported as 86 % of control and the T/C (dose: 5.0 mg/kg/injection, schedule: Q01DX009 (ip), vehicle: saline) is reported as 177 % of control and 187 % of control. The T/C (dose: 6.25 mg/kg/injection, schedule: Q01DX009 (oral), vehicle: saline) was 93 % of control, the T/C (dose: 10.0 mg/kg/injection, schedule: Q01DX009 (ip), vehicle: saline) was 229 % of control and 239 % of control and the T/C (dose: 12.5 mg/kg/injection, schedule: Q01DX009 (oral), vehicle: saline) was 86 % of control. For the same compound, the T/C (dose: 25.0 mg/kg/injection, schedule: Q01DX009 (oral), vehicle: saline) was 86 % of control.

With O=C(O)c1cc(Br)ccc1OCc1ccc(Cl)cc1 the T/C [11] was 106 % of control, the T/C [12] was 99 % of control and the T/C [13] was 110 % of control.

For OC1CCCC2CCCNC12 (stereo not drawn) (tested in a mixture with another compound), the T/C [4] was 88 % of control, the T/C [5] was 103 % of control and the T/C [6] was 100 % of control.

CN(C)CC(C)(C)CO was tested, and the T/C (dose: 25.0 mg/kg/injection, schedule: Q01DX009 (ip), vehicle: saline) was 96 % of control, the T/C (dose: 50.0 mg/kg/injection, schedule: Q01DX009 (ip), vehicle: saline) was 106 % of control and the T/C (dose: 100.0 mg/kg/injection, schedule: Q01DX009 (ip), vehicle: saline) was 101 % of control. The T/C (dose: 200.0 mg/kg/injection, schedule: Q01DX009 (ip), vehicle: saline) was 107 % of control.

For O=C(O)CC/C(=N/OCc1cc2c(cc1Cl)OCO2)C(=O)O, the T/C [7] was 100 % of control, the T/C [9] was 100 % of control and the T/C [10] was 109 % of control.

For Cc1ccc(C=C(C(=O)CCN(C)C)C(=O)CCN(C)C)cc1, the T/C (dose: 50.0 mg/kg/injection, schedule: Q01DX005 (ip), vehicle: saline) was 87 % of control, the T/C (dose: 100.0 mg/kg/injection, schedule: Q01DX005 (ip), vehicle: saline) was 109 % of control and the T/C (dose: 200.0 mg/kg/injection, schedule: Q01DX005 (ip), vehicle: saline) was 119 % of control.

O=CNNS(=O)(=O)/C=C/c1ccccc1 was tested, and the T/C (dose: 12.5 mg/kg/injection, schedule: Q01DX009 (ip), vehicle: distilled water + Tween-80) was 106 % of control, the T/C (dose: 25.0 mg/kg/injection, schedule: Q01DX009 (ip), vehicle: distilled water + Tween-80) was 105 % of control and the T/C (dose: 50.0 mg/kg/injection, schedule: Q01DX009 (ip), vehicle: distilled water + Tween-80) was 102 % of control. For the same compound, the T/C (dose: 100.0 mg/kg/injection, schedule: Q01DX009 (ip), vehicle: distilled water + Tween-80) was 89 % of control and the T/C (dose: 200.0 mg/kg/injection, schedule: Q01DX009 (ip), vehicle: distilled water + Tween-80) was 89 % of control.

For CCCCCCCCCCCCCCC1C(=O)NN(c2ccccc2)C1=O (stereo not drawn), the T/C (dose: 37.5 mg/kg/injection, schedule: Q01DX009 (ip), vehicle: saline with Tween-80) was 108 % of control, the T/C (dose: 75.0 mg/kg/injection, schedule: Q01DX009 (ip), vehicle: saline with Tween-80) was 115 % of control and the T/C (dose: 150.0 mg/kg/injection, schedule: Q01DX009 (ip), vehicle: saline with Tween-80) was 122 % of control.

With O=[N+]([O-])c1ccccc1C(c1ccc2ccccc2c1O)N1CCOCC1 (stereo not drawn) the T/C (dose: 33.0 mg/kg/injection, schedule: Q01DX001 (ip), vehicle: saline with Tween-80) was 100 % of control, the T/C (dose: 50.0 mg/kg/injection, schedule: Q01DX001 (ip), vehicle: saline sonified) was 163 % of control and the T/C (dose: 50.0 mg/kg/injection, schedule: Q01DX001 (ip), vehicle: saline with Tween-80) was 100 % of control. For the same compound, the T/C (dose: 75.0 mg/kg/injection, schedule: Q01DX001 (ip), vehicle: saline with Tween-80) was 100 % of control, the T/C [1] was 109 % of control and the T/C [2] was 95 % of control.

Cn1nnnc1N/N=C/c1ccccc1 was tested, and the T/C [11] was 110 % of control, the T/C [12] was 115 % of control and the T/C [13] was 100 % of control.

With Cc1ccccc1NC(=O)c1ccc([N+](=O)[O-])cc1 the T/C [11] was 96 % of control, the T/C [12] was 108 % of control and the T/C [13] was 96 % of control.

For C=CCCCCCCCCC(=O)Cl, the T/C [11] was 108 % of control, the T/C [12] was 104 % of control and the T/C [13] was 100 % of control.

For O=C1NC2NC(=O)NC2N1 (stereo not drawn), the T/C [11] was 100 % of control, the T/C [12] was 100 % of control and the T/C [13] was 104 % of control.

With NC(=O)c1ccc(C(F)(F)F)cc1O the T/C [14] was 90 % of control and the T/C [15] was 90 % of control.

For COc1ccccc1N1C(=O)CC(Sc2ccccc2N)C1=O (stereo not drawn), the T/C [6] was 91 % of control, the T/C (dose: 132.0 mg/kg/injection, schedule: Q01DX009 (ip), vehicle: saline with Tween-80) was 95 % of control and the T/C [8] was 105 % of control. For the same compound, the T/C (dose: 300.0 mg/kg/injection, schedule: Q01DX009 (ip), vehicle: saline with Tween-80) was 105 % of control and the T/C [16] was 91 % of control.

With NC(=S)c1ccncc1 the T/C [11] was 86 % of control, the T/C [12] was 86 % of control and the T/C [13] was 90 % of control.

With Cc1ccc(C)c(-n2c(-c3ccc(Br)cc3)csc2=NC(=O)c2ccccc2F)c1 the T/C [6] was 110 % of control, the T/C [8] was 100 % of control and the T/C [16] was 115 % of control.

O=C(O)CNC(=O)CNC(=O)C(Br)Cc1ccccc1 (stereo not drawn) was tested, and the T/C [4] was 95 % of control, the T/C (dose: 25.0 mg/kg/injection, schedule: Q04DX003 (ip), vehicle: Klucel (hydroxypropylcellulose) (HPC)) was 104 % of control and the T/C [5] was 87 % of control. For the same compound, the T/C (dose: 50.0 mg/kg/injection, schedule: Q04DX003 (ip), vehicle: Klucel (hydroxypropylcellulose) (HPC)) was 104 % of control, the T/C [6] was 100 % of control and the T/C [14] was 91 % of control and 100 % of control.

For OC(C(c1ccccc1)N1CCCCC1)C(O)(c1ccccc1)c1ccccc1 (stereo not drawn), the T/C [1] was 100 % of control, the T/C [2] was 105 % of control and the T/C [3] was 100 % of control.

With CN(C)N=Nc1ccccc1[N+](=O)[O-] the T/C (dose: 25.0 mg/kg/injection, schedule: Q01DX009 (ip), vehicle: Klucel (hydroxypropylcellulose) (HPC)) was 107 % of control and the T/C [17] was 92 % of control.

C[C@]12CC[C@@H]3c4ccc(O)cc4CC[C@H]3[C@@H]1CC[C@@H]2O was tested, and the T/C [17] was 90 % of control, the T/C [14] was 100 % of control and the T/C [15] was 100 % of control. The T/C (dose: 400.0 mg/kg/injection, schedule: Q01DX009 (ip), vehicle: Klucel (hydroxypropylcellulose) (HPC)) was 95 % of control and the T/C (dose: 400.0 mg/kg/injection, schedule: Q04DX003 (ip), vehicle: Klucel (hydroxypropylcellulose) (HPC)) was 115 % of control.

For CCCCN(C)/N=N/c1[nH]ncc1C(=O)OCC, the T/C (dose: 100.0 mg/kg/injection, schedule: Q04DX003 (ip), vehicle: other) was 116 % of control, the T/C (dose: 200.0 mg/kg/injection, schedule: Q04DX003 (ip), vehicle: other) was 108 % of control and the T/C (dose: 400.0 mg/kg/injection, schedule: Q04DX003 (ip), vehicle: other) was 100 % of control.

In the case of CC/C(=C(\CC)c1ccc(OC)cc1)c1ccc(OC)cc1, the T/C [5] is reported as 90 % of control, the T/C [6] is reported as 90 % of control and the T/C [11] is reported as 86 % of control. The T/C [8] was 90 % of control, the T/C [12] was 90 % of control and the T/C [13] was 95 % of control.

COc1ccc(CC(=O)NCCN(CCN(CCO)C(=O)Cc2ccc(OC)cc2)C(=O)Cc2ccc(OC)cc2)cc1 was tested, and the T/C [6] was 105 % of control, the T/C [11] was 120 % of control and the T/C [8] was 95 % of control. For the same compound, the T/C [12] was 100 % of control, the T/C [16] was 100 % of control and the T/C [13] was 105 % of control.
